Data from patent US9012446B2, “Amino-oxazines and amino-dihydrothiazine compounds as beta-secretase modulators and methods of use” (Amgen Inc., priority 2010, dated 2015).
Values joined by “and” are separate entries in the source; they are usually repeats but may differ in a detail not shown here. Identical values can stand only once. Like-named read-outs stand apart in the source and are kept apart here.

Tests used:
Aβ40 = test: In vitro BACE cell-based assay (Aβ40 sandwich ELISA, cells stably expressing APP); settings: Homo sapiens
Procedure: In Vitro BACE Cell-Based Assay […] Cells stably expressing Amyloid Precursor Protein (APP) were plated at a density of 40K cells/well in 96 well plates (Costar). The cells were cultivated for 24 hours at 37° C. and 5% CO2 in DMEM supplemented with 10% FBS. The test compounds were then added to cells in 10-point dose response concentrations with the starting concentration being either 100 μM or 10 μM. The compounds were diluted from stock solutions in DMSO and the final DMSO concentration of the test compounds on cells was 0.1%. […] The IC50 of the compound was calculated from the percent of control or percent inhibition of Aβ40 as a function of the concentration of the test compound. The sandwich ELISA to detect Aβ40 was performed in 96 well microtiter plates, which were pre-treated with goat anti-rabbit IgG (Pierce). […] The optimal concentration for the pAb40 antibody was 3 μg/ml in Superblock/TBS (Pierce) that was supplemented with 0.05% Tween 20 (Sigma). […] Cellular supernatants were incubated with the capture antibody for 3 h at 4° C., followed by 3 wash steps in TBS-tween (0.05%). The detecting antibody incubation was for 2 h at 4° C., again followed by the wash steps as described previously. The final readout of the ELISA is Time-Resolved Fluorescence (counts per minute) using Delfia reagents Streptavidin-Europium and Enhancement solutions (Perkin Elmer) and the Victor 2 multilabel counter (Perkin Elmer).

BACE = BACE (Homo sapiens, UniProt P56817); test: In vitro enzymatic BACE FRET assay; format: biochemical; settings: average IC50, enzyme assay; read-out: BACE 1 FRET assay
Sequence of BACE (P56817 46-501, species assumed): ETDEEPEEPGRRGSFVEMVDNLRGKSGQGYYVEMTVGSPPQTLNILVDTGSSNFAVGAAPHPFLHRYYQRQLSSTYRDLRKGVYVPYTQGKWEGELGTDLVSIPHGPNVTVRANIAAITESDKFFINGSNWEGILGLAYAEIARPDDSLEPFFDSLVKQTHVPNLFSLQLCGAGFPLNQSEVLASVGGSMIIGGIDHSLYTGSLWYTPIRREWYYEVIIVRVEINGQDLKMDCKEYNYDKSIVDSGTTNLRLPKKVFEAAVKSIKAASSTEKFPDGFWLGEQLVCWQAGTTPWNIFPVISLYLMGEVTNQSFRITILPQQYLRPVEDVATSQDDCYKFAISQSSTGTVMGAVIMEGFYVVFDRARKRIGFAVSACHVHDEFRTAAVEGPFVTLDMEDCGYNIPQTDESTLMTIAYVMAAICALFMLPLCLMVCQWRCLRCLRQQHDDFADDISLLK
Procedure: In Vitro Enzymatic BACE FRET (Fluorescence Resonance Energy Transfer) Assay (Enzyme Assay Data in the Example Table I) The assay buffer used in this screen is 0.05 M acetate, pH 4.2, 10% DMSO final, 100 uM genapol (which is a nonionic detergent, below its Critical Micelle Concentration). The beta secretase enzyme (0.2 nM) is pre-incubated for one hour with inhibitors, typically in about 1 uL of DMSO according to a serial dilution, are added thereto. This assay is effectively started by the addition of FRET substrate (50 nM) and the combination is incubated for one hour. The FRET assay is terminated with by addition of Tris buffer, which raises the pH to neutrality, and the fluorescence is determined. The FRET substrate is a peptide with commercially available fluorophore and quencher, on opposite sides of the BACE cleavage site. Proteolytic cleavage of the FRET substrate releases quenching of fluorescence (excitation 488 nm and emission […]).

[1] = HEK293, average IC50, read-out: HEK cell assay
[2] = HEK293, average IC50, cell assay, HEK cells

Row | SMILES | IC50 (Aβ40; [1]) [nM] | IC50 (BACE) | IC50 (Aβ40; [2]) [nM]
1 | NC1=N[C@@]2(COC1)c1cc(-c3cc(F)ccc3F)ccc1Oc1ncc(C3=CCOCC3)cc12 [compound 218] | 2.6 | 1.3 nM | 
2 | CC#Cc1cncc(-c2ccc3c(c2)[C@@]2(COCC(N)=N2)c2cc(-c4ccnc(F)c4)ncc2O3)c1 [compound 75] |  | 0.5 nM | 2.8
3 | CC1(COc2cc(F)c3c(c2)[C@]2(COCC(N)=N2)c2cc(-c4cccnc4F)ccc2O3)COC1 [compound 83] |  | 0.4 nM | 0.4
4 | NC1=N[C@@]2(COC1)c1cc(-c3cccnc3F)ccc1Oc1cnc(OC(F)F)cc12 [Example 49, (S)-3-(difluoromethoxy)-7-(2-fluoropyridin-3-yl)-2′,6′-dihydrospiro[chromeno[2,3-c]pyridine-5,3′-[1,4]oxazin]-5′-amine] | 11.5 | 6.7 nM | 
5 | N#Cc1cccc(-c2ccc3c(c2)[C@@]2(CCOC(N)=N2)c2cc(-c4ccnc(F)c4)nc(F)c2O3)c1 [compound 225] | 3 | 0.7 nM | 
6 | CC1(COc2cc(F)c3c(c2)[C@]2(CCSC(N)=N2)c2cc(-c4cccnc4F)ccc2O3)COC1 [compound 197] | 4.8 | 2.5 nM | 
7 | NC1=N[C@]2(COC1)c1cc(C3=CCCOC3)ccc1Oc1ccc(-c3cccnc3F)cc12 [compound 130] |  | 0.7 nM | 12.2
8 | NC1=N[C@@]2(COC1)c1cc(O)ccc1Oc1c(F)cc(-c3ccnc(F)c3)cc12 [Example 39, (S)-5-amino-4′-fluoro-2′-(2-fluoropyridin-4-yl)-2,6-dihydrospiro[[1,4]oxazine-3,9′-xanthen]-7′-ol] |  | 368 nM | 2590
9 | CC(C)COc1cc2c(cn1)Oc1ccc(-c3cccnc3F)cc1[C@@]21COCC(N)=N1 [compound 255] | 1 | 0.5 nM | 
10 | NC1=N[C@@]2(COC1)c1cc(-c3cccnc3F)ccc1Oc1c(F)cc(N3CCOCC3)cc12 [Example 35A, (S)-4′-fluoro-7′-(2-fluoropyridin-3-yl)-2′-morpholino-2,6-dihydrospiro[[1,4]oxazine-3,9′-xanthen]-5-amine] |  | 0.5 nM | 1.9
11 | NC1=N[C@@]2(CO[C@H]1C1CCCCC1)c1cc(-c3cccnc3F)ccc1Oc1cnc(Cl)cc12 (racemic) [Example 56A, (3′S,6′S)-3-chloro-6′-cyclohexyl-7-(2-fluoropyridin-3-yl)-2′,6′-dihydrospiro[chromeno[2,3-c]pyridine-5,3′-[1,4]oxazin]-5′-amine] | 138 | 30.7 nM | 
12 | NC1=N[C@]2(CCO1)c1cc(-c3cccnc3F)ccc1Oc1c(F)cc(C3=CCCOC3)cc12 [compound 172] | 1070 | 1190 nM | 
13 | CC1(COc2cc(F)c3c(c2)[C@@]2(CCSC(N)=N2)c2cc(-c4cccnc4F)ccc2O3)COC1 [compound 198] | 634 | 563 nM | 
14 | COc1cc(F)c2c(c1)[C@]1(COCC(N)=N1)c1cc(N3CCC(F)(F)CC3)ccc1O2 [Example 45, (S)-7′-(4,4-difluoropiperidin-1-yl)-4′-fluoro-2′-methoxy-2,6-dihydrospiro[[1,4]oxazine-3,9′-xanthen]-5-amine] |  | 158 nM | 420
15 | CC(C)(C#N)COc1cc2c(cn1)Oc1ccc(-c3cc(Cl)ccc3F)cc1[C@@]21COCC(N)=N1 [compound 127] |  | 0.3 nM | 1.4
16 | NC1=N[C@@]2(COC1)c1cc(-c3cccnc3F)ccc1Oc1c2cc(-c2cccnc2)nc1F [compound 243] | 0.5 | 0.3 nM | 
17 | NC1=N[C@@]2(COC1)c1cc(-c3cccnc3)ccc1Oc1cnc(-c3ccnc(F)c3)cc12 [compound 116] |  | 0.6 nM | 0.8
18 | NC1=N[C@]2(CCO1)c1cc(-c3cccnc3F)ccc1Oc1c(F)cc(-c3ccncc3)cc12 [compound 165] | 248 | 553 nM | 
19 | CCOc1cc2c(cn1)Oc1ccc(-c3cncc(Cl)c3)cc1[C@@]21COCC(N)=N1 [compound 253] | 1.5 | 1 nM | 
20 | NC1=N[C@]2(CCO1)c1cc(-c3cncc(F)c3)ccc1Oc1c2cc(C2=CCCOC2)nc1F [compound 232] | 164 | 793 nM | 
21 | NC1=N[C@]2(CCS1)c1cc(-c3cccnc3F)ccc1Oc1c(F)cc(C3=CCOCC3)cc12 [compound 196] | 83.1 | 2530 nM | 
22 | NC1=N[C@@]2(COC1)c1cc(-c3cncc(F)c3)ccc1Oc1cnc(C3=CCCOC3)cc12 [compound 121] |  | 0.5 nM | 0.2
23 | NC1=N[C@@]2(CCS1)c1cc(-c3cccnc3F)ccc1Oc1cnc(C3=CCOCC3)cc12 [compound 193] | 4.7 | 3.3 nM | 
24 | CC(C)(C)COc1cc2c(c(F)n1)Oc1ccc(-c3cccnc3F)cc1[C@]21COCC(N)=N1 [Example 59B, (R)-1-fluoro-7-(2-fluoropyridin-3-yl)-3-(neopentyloxy)-2′,6′-dihydrospiro[chromeno[2,3-c]pyridine-5,3′-[1,4]oxazin]-5′-amine] | 370 | 84.9 nM | 
25 | COc1cc(F)c2c(c1)[C@]1(COCC(N)=N1)c1cc(-c3cccnc3F)ccc1O2 [Example 48, (S)-4′-fluoro-7′-(2-fluoropyridin-3-yl)-2′-methoxy-2,6-dihydrospiro[[1,4]oxazine-3,9′-xanthen]-5-amine] |  | 1.5 nM | 15.6
26 | NC1=N[C@]2(CCO1)c1cc(-c3cccnc3F)ccc1Oc1c2cc(-c2cccnc2)nc1F [compound 227] | 101 | 489 nM | 
27 | CC1(C#Cc2cnc3c(c2)[C@]2(COCC(N)=N2)c2cc(-c4cc(Cl)ccc4F)ccc2O3)COC1 [compound 95] |  | 0.5 nM | 1.2
28 | NC1=NC2(CCO1)c1cc(-c3cccnc3)ccc1Oc1cnc(C3=CCOCC3)cc12 (stereo not shown) [compound 151] |  | 7.3 nM | 3.4
29 | NC1=NC2(CCS1)c1cc(-c3cccnc3)ccc1Oc1ccc(-c3cccnc3)cc12 [compound 99] |  | 81.8 nM | 118

Second part, the compound after the results:

Row | IC50 (Aβ40; [1]) [nM] | IC50 (BACE) | IC50 (Aβ40; [2]) [nM] | SMILES
30 | 106 | 30.9 nM |  | COc1cc2c(cn1)Oc1ccc(-c3ccc(F)c(F)c3)cc1[C@@]21COCC(N)=N1 [Example 50, (S)-7-(3,4-difluorophenyl)-3-methoxy-2′,6′-dihydrospiro[chromeno[2,3-c]pyridine-5,3′-[1,4]oxazin]-5′-amine]
31 |  | 0.7 nM | 3.9 | NC1=N[C@@]2(COC1)c1cc(-c3cc(Cl)ccc3F)ccc1Oc1ncc(N3CCOCC3)cc12 [compound 93]
32 | 13.1 | 2 nM and 0.7 nM | 15.5 | CC(C)(C)COc1ccc2c(c1)[C@]1(COCC(N)=N1)c1cc(-c3cccnc3F)ccc1O2 [Example 67, (3S)-2′-(2,2-dimethylpropoxy)-7′-(2-fluoro-3-pyridinyl)-6H-spiro[1,4-oxazine-3,9′-xanthen]-5-amine]
33 | 1.4 | 0.8 nM |  | N#Cc1cccc(-c2ccc3c(c2)[C@@]2(CCOC(N)=N2)c2cc(C4=CCCOC4)nc(F)c2O3)c1 [compound 223]
34 |  | 0.3 nM | 0.8 | NC1=N[C@@]2(COC1)c1cc(-c3cncnc3)ccc1Oc1cnc(-c3ccc(F)c(F)c3)cc12 [compound 79]
35 |  | 0.4 nM | 2.4 | NC1=N[C@@]2(COC1)c1cc(-c3cccnc3F)ccc1Oc1c(F)cc(C3CCOCC3)cc12 [Example 42, (S)-4′-fluoro-7′-(2-fluoropyridin-3-yl)-2′-(tetrahydro-2H-pyran-4-yl)-2,6-dihydrospiro[[1,4]oxazine-3,9′-xanthen]-5-amine]
36 |  | 784 nM | 78.1 | NC1=N[C@]2(CCO1)c1cc(-c3cccnc3)ccc1Oc1c(F)cc(C3=CCOCC3)cc12 [compound 157]
37 | 3150 | 481 nM |  | NC1=N[C@]2(COC1)c1cc(-c3cccnc3F)ccc1Oc1c2cc(Cl)nc1F [compound 244]
38 | 245 | 525 nM |  | CC1(COc2cc(F)c3c(c2)[C@@]2(CCOC(N)=N2)c2cc(-c4cccnc4F)ccc2O3)COC1 [compound 171]
39 | 12.3 | 2.7 nM |  | NC1=N[C@@]2(CCS1)c1cc(-c3cccnc3F)ccc1Oc1c(F)cc(C3=CCOCC3)cc12 [compound 200]
40 | 25.5 | 4.3 nM |  | CCOc1cc2c(cn1)Oc1ccc(-c3cccc(F)c3)cc1[C@@]21COCC(N)=N1 [compound 256]
41 | 206 | 152 nM |  | NC1=N[C@]2(CCO1)c1cc(-c3cccnc3)ccc1Oc1c2cc(-c2ccnc(F)c2)nc1F [compound 240]
42 | 0.7 | 0.7 nM |  | N#Cc1cccc(-c2ccc3c(c2)[C@@]2(CCOC(N)=N2)c2cc(C4=CCOCC4)nc(F)c2O3)c1 [compound 234]
